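Values below derive from 48-hour exposures of cells grown in 96-well plates, with endpoints linearly interpolated between the two concentrations bracketing the appropriate inhibition level. GI50: concentration for 50% inhibition of growth. Definition used: TGI = concentration required for complete inhibition of growth.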
Columns and labels:
Experiment in all cases: NCI-60 cell line screen, 48 h
A498 renal = tested on: A498 renal
CAKI-1 renal = tested on: CAKI-1 renal
EKVX NSCLC = tested on: EKVX NSCLC
MDA-MB-435 = tested on: MDA-MB-435
OVCAR-8 ovarian = tested on: OVCAR-8 ovarian
RXF 393 renal = tested on: RXF 393 renal
SF-539 CNS = tested on: SF-539 CNS
SN12C renal = tested on: SN12C renal
SR leukemia = tested on: SR leukemia
CCRF-CEM leukemia = tested on: CCRF-CEM leukemia

SMILES	GI50 (A498 renal) [µM]	TGI (A498 renal) [µM]	GI50 (CAKI-1 renal) [µM]	TGI (CAKI-1 renal) [µM]	GI50 (EKVX NSCLC) [µM]	TGI (EKVX NSCLC) [µM]	GI50 (MDA-MB-435) [µM]	TGI (MDA-MB-435) [µM]	GI50 (OVCAR-8 ovarian) [µM]	TGI (OVCAR-8 ovarian) [µM]	GI50 (RXF 393 renal) [µM]	TGI (RXF 393 renal) [µM]	GI50 (SF-539 CNS) [µM]	TGI (SF-539 CNS) [µM]	GI50 (SN12C renal) [µM]	TGI (SN12C renal) [µM]	GI50 (SR leukemia) [µM]	TGI (SR leukemia) [µM]	GI50 (CCRF-CEM leukemia) [µM]	TGI (CCRF-CEM leukemia) [µM]
COc1ccc(/C=C/C=C(/C#N)C(N)=S)cc1	25.1	56.5	29.6	> 100	77.3	> 100	21.6	77.1	21.5	54.3	14	30.1	34.8	> 100	35.4	> 100	19.4	> 100		
O=C(c1cccs1)c1c(C(F)(F)F)n([O-])c2ccccc2[n+]1=O	0.79	2.4	1	2.36	0.798	1.55	1.15	3.5	0.601	1.94			1.11	3.42	0.737	1.67	2.56	6.03	6.69	13.1
CCOc1ccc(NC(=O)CC2Sc3ccccc3NC2=O)cc1 (stereo unspecified)		> 100		> 100		> 100				42.9				> 100		> 100				> 100
CCOC(=O)C1(CC)CCCCC(=O)N1 (stereo unspecified)				> 100		> 100				> 100		> 100				> 100				> 100
Nc1n[nH]c2ccc([C@@H]3Nc4ccc5[nH]ncc5c4[C@H]4[C@H]5CCC(C5)[C@H]43)cc12	0.168	0.641	0.436	24.7	0.606	> 100			0.479	> 47.5			0.238	0.673	0.618	> 89.7	0.28	20.2	0.383	> 100
C[C@@H]1CC[C@H]2C(COCC3=C(C(F)(F)F)O[C@@H]4O[C@@]5(C)CC[C@H]6[C@H](C)CC[C@@H]3[C@@]46OO5)=C(C(F)(F)F)O[C@@H]3O[C@@]4(C)CC[C@@H]1[C@]32OO4	32.7	> 100	0.205	> 100	0.0333	> 100	< 0.0108	> 100	< 0.0178	> 100			< 0.01	> 100	0.0439	> 100	< 0.01	> 100	< 0.0284	> 100
O=C1NC2(CCCC2)C(=O)C12CCCC2		> 100		> 100		> 100				> 100		> 100		> 100		> 100		> 100		> 100
C#CCNC(=O)NC(CCCNC(=O)OCc1ccccc1)C(=O)OCc1ccccc1 (stereo unspecified)		> 100		87.5		> 100				> 100		95.2		> 100		> 100		> 100		> 100
Cc1ccccc1C(C#N)C(=O)C(=O)Nc1nc([N+](=O)[O-])cs1 (stereo unspecified)		> 100		> 100		> 100				> 100		> 100		> 100		> 100				
CC(=O)[CH-]C(=O)c1ccccc1.CC(=O)[CH-]C(=O)c1ccccc1.CCCCCCCCCCCCCCCCCC(=O)[O-].CCCCCCCCCCCCCCCCCC(=O)[O-].[Ti+4]	25.7	68.5	19.8	39.9	74.2	> 100			22.6	48.3	19.7	33.9	17.2	31.3	29.9	73.5			23.2	86.3
CNC(=O)c1ccccc1CC1(O)c2ccccc2Oc2ccccc21	4.54	37.5	21.7	> 100			3.32	19.9	29.1	> 100			17.3	40.8	26	> 100	6.61	86.4	24.6	> 100
C1COCCN1.C1COCCN1.N.N.[Cl-].[Pt+2]			54.1	> 100	> 100	> 100			> 100	> 100	> 100	> 100	> 100	> 100	> 100	> 100	> 100	> 100		
O=[N+]([O-])[C@@H]1C2C=CC(C2)[C@H]1Cl (stereo partly specified)		> 100		> 100		> 100				> 100		> 100		> 100		> 100		> 100		> 100
O=C(/C=C/c1ccc(Cl)cc1)c1ccc(Cl)cc1Cl			8.22	15.7	9.33	19.7	9.11	24.3	8.65	21.5			9.68	17.9	9.96	20.9	2.31	50		
C=CC1=CSNN1		> 100		> 100		> 100				> 100		> 100		> 100		> 100				> 100
CC(=O)OC1=C2CC3(C)OC(=O)CC(C)(C)C3=CC=C2C=C(C(C)C)C1=O (stereo unspecified)		2.99		3.18		3.57				0.779		0.347				2		1.01		1.02
C=CCSC[C@H](NC(=O)COc1ccccc1)C(=O)NC(C(=O)OCc1ccc([N+](=O)[O-])cc1)=C(C)C		> 100				> 100				> 100		> 100				> 100				> 100
CCOC(=O)CC1=Nc2ccccc2SC1		> 100		> 100		> 100				> 100		> 100		> 100		> 100				

Reference: PubChem BioAssay (NCI)
